In US7745390B2, “Antimicrobial peptides” (priority 2005, dated 2010):
Square brackets hold non-standard residues; d marks the D form. Ends that are not written are not given here. Peptide text beside a SMILES is read from it.

Legend:
E. coli DH5a = assay type: cell-based; details: DH5a, pH 7.2
Method: (§1) The experiments described above characterizing the activity of granulysin peptides G1-G18 relied on counting bacterial colonies on plates. This assay is quite labor intensive and would not allow evaluation of many different compounds on a number of different microbes. Therefore, we optimized an assay in which the entire procedure could be completed in a single microtiter well. Briefly, peptides are diluted in 10 mM phosphate buffer, pH 7.2 supplemented with 0.03% LB (J. Sambrook, D. W. Russell, Molecular Cloning: A Laboratory Manual (Cold Spring Harbor Laboratory Press, New York, ed. 3, 2001) pg. A2.2, Retrieved from http://openwetware.org/wiki/LB) and 25 μl is added to microtiter wells. Bacteria (25 μl) are added (˜5×10^6 colony forming units/ml) in the same buffer. After a 3-hour incubation at 37° C., 150 μl of LB is added and the plates are incubated overnight. The OD at 600 nm is read on an ELISA plate reader. The minimum inhibitory concentration (MIC) is the lowest concentration allowing no bacterial growth. The IC50 is the concentration of peptide that results in 50% growth compared to the medium.
(§2) We now describe additional peptides and their activity. The peptides have been designed, synthesized, and have been tested for lysis of E. coli and S. typhimurium (gram negative bacteria), B. cereus (gram positive bacterium). Results are shown in Table 2 along with the amino acid sequence of the peptide. Changes from the naturally occurring sequence are underlined. In general, the desired result is lysis of bacteria at low concentration (<1 μM).
(§3) In Table 2, Columns 2-7 are the MIC and IC50 (concentration required for 50% inhibition of growth) for each organism (E. coli, Salmonella, and B. cereus). The MIC (minimum inhibitory concentration) was determined as described above, in a multiwell plate assay. […] L-isomer amino acids are designated by capital letters while D-isomer amino acids are designated by lower case letters.

B. cereus = assay type: cell-based; details: pH 7.2
Method: as §1, §2, §3

Salmonella = assay type: cell-based, S. typhimurium; details: pH 7.2
Method: as §1, §2, §3

CC[C@H](C)[C@H](NC(=O)[C@@H](NC(=O)[C@@H](CCCNC(=N)N)NC(=O)[C@H](CO)NC(=O)[C@H](CCC(N)=O)NC(=O)[C@@H](CCCNC(=N)N)NC(=O)[C@@H](CCCNC(=N)N)NC(=O)[C@H](CCSC)NC(=O)[C@H](Cc1ccccc1)NC(=O)[C@@H](CCCNC(=N)N)NC(=O)[C@H](CCCNC(=N)N)NC(=O)[C@H](C)NC(=O)[C@H](NC(=O)[C@H](CC(=O)O)NC(=O)[C@@H](N)CCCNC(=N)N)C(C)C)C(C)C)C(=O)N[C@@H](CO)C(=O)N[C@H](CCCNC(=N)N)C(=O)N[C@@H](CC(C)C)C(=O)N[C@H](C(=O)O)C(C)C [Peptide G12.16, RDvARrFMrrQSrVISrLV] (H-RD[dV]AR[dR]FM[dR][dR]QS[dR]VIS[dR]LV-OH; N-terminus and C-terminus assumed)
E. coli DH5a MIC (E. coli DH5a): 1.39 µM | IC50 (E. coli DH5a): 720 nM | B. cereus MIC (B. cereus): 5.6 µM | IC50 (B. cereus): 3510 nM | IC50 (Salmonella): 1000 nM | Salmonella MIC (Salmonella): 2.8 µM

CC[C@H](C)[C@H](NC(=O)[C@H](NC(=O)[C@H](CCCNC(=N)N)NC(=O)[C@H](CO)NC(=O)[C@H](CCC(N)=O)NC(=O)[C@@H](CCCNC(=N)N)NC(=O)[C@@H](CCCNC(=N)N)NC(=O)[C@H](CCSC)NC(=O)[C@H](Cc1ccccc1)NC(=O)[C@@H](CCCNC(=N)N)NC(=O)[C@H](CCCNC(=N)N)NC(=O)[C@@H](C)NC(=O)[C@@H](NC(=O)[C@H](CC(=O)O)NC(=O)[C@@H](N)CCCNC(=N)N)C(C)C)C(C)C)C(=O)N[C@@H](CO)C(=O)N[C@@H](CCCNC(=N)N)C(=O)N[C@H](CC(C)C)C(=O)N[C@H](C(=O)O)C(C)C [Peptide G12.17, RDVaRrFMrrQSRvISRlV] (H-RDV[dA]R[dR]FM[dR][dR]QSR[dV]ISR[dL]V-OH; N-terminus and C-terminus assumed)
E. coli DH5a MIC (E. coli DH5a): 3.3 µM | IC50 (E. coli DH5a): 890 nM | B. cereus MIC (B. cereus): 2.8 µM | IC50 (B. cereus): 1750 nM | IC50 (Salmonella): 1600 nM | Salmonella MIC (Salmonella): 2.8 µM

CC[C@@H](C)[C@@H](NC(=O)[C@@H](NC(=O)[C@H](CCCNC(=N)N)NC(=O)[C@@H](CO)NC(=O)[C@H](CCC(N)=O)NC(=O)[C@@H](CCCNC(=N)N)NC(=O)[C@@H](CCCNC(=N)N)NC(=O)[C@H](CCSC)NC(=O)[C@H](Cc1ccccc1)NC(=O)[C@H](CCCNC(=N)N)NC(=O)[C@H](CCCNC(=N)N)NC(=O)[C@@H](C)NC(=O)[C@@H](NC(=O)[C@H](CC(=O)O)NC(=O)[C@@H](N)CCCNC(=N)N)C(C)C)C(C)C)C(=O)N[C@@H](CO)C(=O)N[C@@H](CCCNC(=N)N)C(=O)N[C@@H](CC(C)C)C(=O)N[C@H](C(=O)O)C(C)C [Peptide G12.18, RDVaRRFMrrQsRViSRLV] (H-RDV[dA]RRFM[dR][dR]Q[dS]RV[dI]SRLV-OH; N-terminus and C-terminus assumed)
E. coli DH5a MIC (E. coli DH5a): 2.9 µM | IC50 (E. coli DH5a): 1000 nM | B. cereus MIC (B. cereus): 5.6 µM | IC50 (B. cereus): 3510 nM | IC50 (Salmonella): 1610 nM | Salmonella MIC (Salmonella): 2.8 µM

CSCC[C@@H](NC(=O)[C@H]1CCCN1C(=O)[C@@H](CCCCN)NC(=O)[C@@H](CCCCN)NC(=O)[C@@H](CO)NC(=O)[C@H](NC(=O)[C@@H](CCCCN)NC(=O)[C@@H](CCCCN)NC(=O)[C@@H](CCCCN)NC(=O)[C@@H](CCCCN)NC(=O)[C@@H](CCCCN)NC(=O)[C@@H](CCCCN)NC(=O)[C@H](N)CCCCN)C(C)C)C(=O)N[C@H](CCCCN)C(=O)N[C@H](CCCCN)C(=O)N[C@H](Cc1ccc(O)cc1)C(=O)N[C@H](CCCCN)C(=O)N[C@H](CO)C(=O)N[C@H](CCCCN)C(=O)N[C@H](CCCCN)C(=O)N1CCC[C@@H]1C(=O)N[C@H](CCCCN)C(=O)N[C@H](CCCCN)C(=O)N[C@H](CC(C)C)C(=O)N[C@@H](C(=O)O)C(C)C [Peptide G12.29, kkkkkkkvskkpmkkykskkpkklv] (H-[dK][dK][dK][dK][dK][dK][dK][dV][dS][dK][dK][dP][dM][dK][dK][dY][dK][dS][dK][dK][dP][dK][dK][dL][dV]-OH; N-terminus and C-terminus assumed)
E. coli DH5a MIC (E. coli DH5a): 0.15 µM | IC50 (E. coli DH5a): 100 nM | B. cereus MIC (B. cereus): 0.35 µM | IC50 (B. cereus): 210 nM | IC50 (Salmonella): 280 nM | Salmonella MIC (Salmonella): 1.15 µM

CC(C)[C@H](NC(=O)[C@H](CO)NC(=O)[C@H](CCCNC(=N)N)NC(=O)[C@@H](N)CCC(N)=O)C(=O)N[C@@H](CO)C(=O)N[C@@H](CCCNC(=N)N)C(=O)N[C@H](C)C(=O)N[C@H](C)C(=O)N[C@H](C(=O)N[C@@H](CCCNC(=N)N)C(=O)N[C@H](C(=O)N[C@@H](CO)C(=O)N[C@@H](CCCNC(=N)N)C(=O)N[C@H](C(=O)NCC(=O)N[C@@H](CCCNC(=N)N)C(=O)N[C@@H](CO)C(=O)N[C@@H](CCCNC(=N)N)C(=O)N[C@@H](Cc1c[nH]c2ccccc12)C(=O)O)[C@@H](C)O)C(C)C)[C@@H](C)O [Peptide G13.7, QRSVSRaaTRVSRTGRSRW] (H-QRSVSR[dA][dA]TRVSRTGRSRW-OH; N-terminus and C-terminus assumed)
E. coli DH5a MIC (E. coli DH5a): 5.7 µM | IC50 (E. coli DH5a): 2850 nM | B. cereus MIC (B. cereus): >10 µM | IC50 (B. cereus): 7700 nM | IC50 (Salmonella): > 10000 nM | Salmonella MIC (Salmonella): >10 µM

CSCC[C@H](NC(=O)[C@H](Cc1ccccc1)NC(=O)[C@H](CCCNC(=N)N)NC(=O)[C@H](CCCNC(=N)N)NC(=O)[C@H](CO)NC(=O)[C@@H](NC(=O)[C@@H](CC(=O)O)NC(=O)[C@@H](CCCNC(=N)N)NC(=O)[C@H](Cc1c[nH]c2ccccc12)NC(=O)[C@H](CCCNC(=N)N)NC(=O)[C@H](CO)NC(=O)[C@H](CCCNC(=N)N)NC(=O)CN)C(C)C)C(=O)N[C@@H](CCCNC(=N)N)C(=O)N[C@@H](CCCNC(=N)N)C(=O)O [Peptide G14.10, GRSRWrdVSRRFMRR] (H-GRSRW[dR][dD]VSRRFMRR-OH; N-terminus and C-terminus assumed)
E. coli DH5a MIC (E. coli DH5a): 1.25 µM | IC50 (E. coli DH5a): 450 nM | B. cereus MIC (B. cereus): 2.8 µM | IC50 (B. cereus): 1750 nM | IC50 (Salmonella): 890 nM | Salmonella MIC (Salmonella): 1.4 µM

FDTPRRVSRRFMRRLGH [Peptide G11.43, FDTPRRVSRRFMRRLGH]
E. coli DH5a MIC (E. coli DH5a): 0.75 µM | IC50 (E. coli DH5a): 420 nM | B. cereus MIC (B. cereus): 0.75 µM | IC50 (B. cereus): 210 nM | IC50 (Salmonella): 3000 nM | Salmonella MIC (Salmonella): >10 µM

GRARWRDVARRFMRR [Peptide G14.9, GRARWRDVARRFMRR]
E. coli DH5a MIC (E. coli DH5a): 1.38 µM | IC50 (E. coli DH5a): 810 nM | B. cereus MIC (B. cereus): 1.37 µM | IC50 (B. cereus): 850 nM | IC50 (Salmonella): 440 nM | Salmonella MIC (Salmonella): 0.65 µM

GRSGWRDVSRNFRRG [Peptide G14.12, GRSGWRDVSRNFRRG]
E. coli DH5a MIC (E. coli DH5a): >10 µM | IC50 (E. coli DH5a): 6750 nM | B. cereus MIC (B. cereus): >10 µM | IC50 (B. cereus): > 10000 nM | IC50 (Salmonella): > 10000 nM | Salmonella MIC (Salmonella): >10 µM
